“Also recorded” adds a separate entry of the source.
How the values were obtained:
[1] = system: NT2 cells; conditions: standard protocol for differentiation; cited from earlier work
[2] = system: NT2 cells; experiment: RA-induced neuronal differentiation of NT2 cell aggregates (phase contrast morphology); assay type: cell-based, human; conditions: for number of neurons that could be prepared: NT2 aggregates
Description: NT2 cells were cultured as previously described (Pleasure, S. J. et al., 1992, J. Neurosci. 12:1802-1815). Briefly, cells were maintained in OptiMEMI-reduced serum medium (GIBCO, Palo Alto, Calif., USA) supplemented with 5% fetal bovine serum (FBS; GIBCO, Palo Alto, Calif., USA). When NT2 cells were differentiated by the standard protocol, NT2 cells were seeded at 2×10^6 cells per 75 cm^2 in Dulbecco's Modified Eagle's medium (high glucose formulation) (DMEM-HG; GIBCO, Palo Alto, Calif., USA) and were treated with a final concentration of 10 μM all-trans RA (SIGMA, St. Louis, Mo., USA). In the cell aggregation studies, cells were dislodged by trypsinization and were plated at 1×10^5 cells per ml into a 85-mm bacteriological grade petri dish in DMEM-HG supplemented 10% FBS. After incubation overnight at 37° C. in a 5% CO2 incubator, the aggregates were supplemented with a final concentration of 10 μM all-trans RA. The medium was replaced every two days. After 14 days of RA treatment, aggregates were plated onto tissue culture grade petri dish pre-coated with 10 μg/ml poly-D-lysine (PDL; SIGMA, St. Louis, Mo., USA), 10 μg/ml mouse laminin (LAM; GIBCO, Palo Alto, Calif., USA) and 0.1% gelatin (SIGMA, St. Louis, Mo., USA) in Dulbecco's Phosphate buffered saline (D-PBS; GIBCO, Palo Alto, Calif., USA). Following overnight incubation, aggregates were then cultured in DMEM-HG with 10% FBS supplemented with 1 μM cytosine D-arabinofuranoside (arac; SIGMA, St. Louis, Mo., USA) and 10 μM uridine (SIGMA, St. Louis, Mo., USA). After 3 days of incubation, neurons were detached by tapping gently on the side of the tissue culture plate, or by brief trypsinization, and replated on to a new pre-coated tissue culture plate. Incubation was continued in the presence of araC and uridine for another 4 days. Neurons obtained could be kept in DMEM supplemented with 10% FBS for more than 3 weeks.
To examine the effect of cell aggregation on RA-induced neuronal differentiation, NT2 cells were pre-aggregated as described above. After 14 days of RA treatment, aggregates were plated on PDL and LAM (PDL/LAM) coated plates. […] Phase bright neuron-like cells with long extended neurites continued to migrate out from the NT2 aggregates. At day 3 after replating, these cells grew on the surface of large-flattened cells (FIG. 1). […] However, neuron-like cells were subsequently overwhelmed by both undifferentiated NT2 cells and the differentiated large-flattened cells (Pleasure, S. J. et al., 1992, J. Neurosci. 12:1802-1815).
It is possible that the sustained requirement of RA for the neuronal differentiation of NT2 is indeed due to the lack of cell-cell interaction. To examine this possibility, NT2 cells were maintained as aggregates in bacteriological culture dish for 14 days and RA treatment was given only during the first few days of aggregation (1 to 5 days).

[3] = system: NT2 aggregates; experiment: Western blot of neuronal markers in RA-differentiated NT2 aggregates; assay type: cell-based, human
Description: (§1) FIG. 5. Expression of neuronal markers in RA differentiated NT2 aggregates. NT2 cells were pre-aggregated by RA at concentration (10^−7 to 10^−5 M) for 14 days and replated onto PDL/LAM coated plates for two days. As control experiments, NT2 cells were plated at 2×10^5 cells/ml as monolayer cultures and differentiated with RA (10^−7 to 10^−5 M) for a total of 16 days. Total proteins were extracted and Western blot analysis was performed using antibodies specific against phosphorylated NF-M (NF-M-P; upper panel) and synapsin I (lower panel).
(§2) Cells were washed twice with ice-cold PBS followed by a wash with ice-cold PBS supplemented with 1 mM sodium orthovanadate (NaOV; SIGMA, St. Louis, Mo., USA). Cells were then lysed with lysis buffer (50 mM Tris.Cl at pH8, 150 mM NaCl, 1% TX, 1×aprotinin; SIGMA, St. Louis, Mo., USA, 1 mM PMSF; GIBCO, Palo Alto, Calif., USA and 1 mM NaOV) at 4° C. for 15 minutes. Lysates were collected and centrifuged to remove cell debris. Protein assays were performed with Bio-Rad Protein Assay Kit based on the Bradford dye-binding procedure (BIO-RAD, Hercules, Calif., USA). Protein (typically 10 μg) were separated by SDS-PAGE and then electro-transferred to nitrocellulose membrane (MSI, Westborough, Mass., USA). After blocking at room temperature for 1 hr using TBS-Tween containing 5% non-fat milk, membranes were incubated overnight at 4° C. with primary antibodies in TBS-Tween containing 5% non-fat milk. Membranes were then incubated with horseradish peroxidase conjugated secondary antibodies (1:2000 dilution; AMERSHAM, Arlington Heights, Ill., USA) for 1 hour at room temperature. After three washes with TBS-Tween, immunoreactive bands were detected using ECL kit (AMERSHAM, Arlington Heights, Ill., USA).
To study whether the high concentrations of RA required for inducing neuronal differentiation of NT2 cells could be lowered under the condition of cell aggregation, we exposed the NT2 aggregates to reduced concentration of RA (0.1 to 10 μM). Following treatment of NT2 aggregates with RA for 14 days, these cells were plated onto PDL/LAM coated plates in RA-free medium, and total protein samples were prepared 2 days later. As control, total protein samples were extracted from monolayer NT2 cultures treated with 16 days of RA (0.1 to 10 μM).

[4] = system: monolayer NT2 cells; experiment: Western blot of neuronal markers in RA-treated monolayer NT2 cultures; assay type: cell-based, human; conditions: RA 0.1 to 10 μM for 16 days
Description: as §1
as §2, with “Mass., USA). […] After three” for “Mass., USA). After blocking at room temperature for 1 hr using TBS-Tween containing 5% non-fat milk, membranes were incubated overnight at 4° C. with primary antibodies in TBS-Tween containing 5% non-fat milk. Membranes were then incubated with horseradish peroxidase conjugated secondary antibodies (1:2000 dilution; AMERSHAM, Arlington Heights, Ill., USA) for 1 hour at room temperature. After three”, “Ill., USA). […]” for “Ill., USA).”

[5] = system: NT2 cells; experiment: Indirect immunofluorescent analysis of NT2 neurons differentiated by cell aggregation; assay type: cell-based, human; conditions: RA 5 μM for 14 days, two days after replating in RA-free medium
Description: NT2 cells were aggregated and differentiated by RA (5 μM) for 14 days. Two days after replating in RA-free medium, differentiated NT2 cells were fixed and stained with the antibodies specific against TH (upper panel), and phosphorylated NF-M (lower panel). Scale bar, 50 μm.
For immunofluorescent analysis, control or differentiated aggregates cultures were fixed with 4% paraformaldehyde (FLUKA, Hauppauge, N.Y., USA) in PBS. After blocking with 4% normal serum (NS; VECTOR LAB, Burlingame, Calif., USA) in PBS containing 0.4% Triton-X (TX; BOERINGER MANNEHEIM, Mannheim, Germany), and 1% bovine serum albumin (BSA; SIGMA, St. Louis, Mo., USA), aggregates were incubated overnight at 4° C. with primary antibodies diluted in antibody diluent (1% NS, 0.4% TX and 1% BSA). Incubation with secondary antibodies was performed at room temperature for at least 2 hours. Cells were visualized under fluorescence microscope (ZEISS, Jena, Germany). […]
In order to verify whether the phase-bright cells obtained following cell aggregation were neurons, immunocytochemical analysis was performed. High-molecular weight neurofilament proteins (200 kDa) were detected in the neurites of the neurons (FIG. 2). […] In addition, substance P (SP) was detected in both the cell bodies and the neurites of the neurons (FIG. 2). […]

[6] = NT2 aggregates, RA 0.1 to 10 μM

## CC1=C(/C=C/C(C)=C/C=C/C(C)=C/C(=O)O)C(C)(C)CCC1 [RA, all-trans retinoic acid]
[1]
  time until neuron-like cells observed after RA treatment: about five weeks
[2]; 2 to 3 days of RA treatment (10 μM), cells maintained as aggregates for 14 days
  formation of neurons after brief RA treatment: Neurons were observed
[2]; 14 days of RA treatment (10 μM), plated on PDL/LAM, overnight incubation without RA
  neurite outgrowth from NT2 aggregates: Neurite outgrowth was initiated
[2]; 0.1 μM RA
  number of neurons that could be prepared: almost no neurons were observed; also recorded: did not result in cells that resembled neurons
[2]; 1 μM RA
  number of neurons that could be prepared: only a few neurons could be observed
[2]; NT2 cells treated with RA as aggregates in bacteriological plates
  time to formation of neurons: ≤ 16 days
[2]; RA for only 12 days, 2 days after plating on PDL/LAM
  extension of neurites from NT2 cells: extension of neurites from NT2 cells was observed
[2]; cell aggregation period less than 12 days
  neuritic outgrowth of RA-treated aggregates: did not result in observable neuritic outgrowth
[3]; NT2 aggregates at 0.1 μM RA versus monolayer NT2 cells at 10 μM RA
  expression level of phosphorylated NF-M proteins, aggregates versus monolayer: comparable expression level
[3]; [6]
  expression level of phosphorylated NF-M proteins versus RA concentration: elevated with increased concentration of RA
  synapsin I protein expression: High level of synapsin I protein expression was detected
[3]; NT2 aggregates, RA 0.1 to 10 μM for 14 days, 2 days on PDL/LAM
  expression of phosphorylated NF-M proteins: could induce the expression of phosphorylated NF-M proteins
[4]
  expression of phosphorylated NF-M: expressed phosphorylated NF-M only at higher concentrations of RA (1 or 10 μM)
[5]
  expression of neuronal specific proteins (NF200, synapsin I, substance P, GABA): expressed neuronal specific proteins
  expression of tyrosine hydroxylase (TH): expressed tyrosine hydroxylase (TH)
